Laboratory results taken from patent publication US10375956B2, “Herbicidally active 2-(substituted-phenyl)-cyclopentane-1,3-dione compounds and derivatives thereof” (Syngenta Limited, priority 2013, dated 2019).

Experiments:
Type in all cases: in vivo
[1] = test system: Abutilon theophrasti (ABUTH); test: Test 1 glasshouse assay, pre-emergence herbicidal activity; settings: 312 h, visual evaluation after 13 days, read-out: Percentage phytotoxicity ABUTH
Protocol: (§1) Seeds of a variety of test species are sown in standard soil in pots. After cultivation for one day (pre-emergence) or after 8 days cultivation (post-emergence) under controlled conditions in a glasshouse (at 24/16° C., day/night; 14 hours light; 65% humidity), the plants are sprayed with an aqueous spray solution derived from the formulation of the “technical” (i.e. unformulated) active ingredient in acetone/water (50:50) solution containing 0.5% Tween 20 (polyoxyethylene sorbitan monolaurate, CAS Registry Number 9005-64-5). The test plants are then grown on under controlled conditions in a glasshouse (at 24/16° C., day/night; 14 hours light; 65% humidity) and watered twice daily. After 13 days for pre- or post-emergence, the test is evaluated visually, and an assessed percentage phytotoxicity score is given for each herbicidal application on each plant species (where 100%=total damage to plant; 0%=no damage to plant).
(§2) Test plants include the following: Abutilon theophrasti (ABUTH), Amaranthus retroflexus (AMARE): these are dicotyledonous (broadleaved) weeds. Setaria faberi (SETFA), Alopecurus myosuroides (ALOMY), Echinochloa crus-galli (ECHCG): these are grassy monocotyledonous weeds. Also: Zea mays (ZEAMX, corn/maize), which can be a grassy weed (“volunteer” corn) in some circumstances.

[2] = test system: Alopecurus myosuroides (ALOMY); test: as above; settings: 312 h, visual evaluation after 13 days, read-out: Percentage phytotoxicity ALOMY
Protocol: as §1, §2

[3] = test system: Amaranthus retroflexus (AMARE); test: as above; settings: 312 h, visual evaluation after 13 days, read-out: Percentage phytotoxicity AMARE
Protocol: as §1, §2

[4] = test system: Echinochloa crus-galli (ECHCG); test: as above; settings: 312 h, visual evaluation after 13 days, read-out: Percentage phytotoxicity ECHCG
Protocol: as §1, §2

[5] = test system: Setaria faberi (SETFA); test: as above; settings: 312 h, visual evaluation after 13 days, read-out: Percentage phytotoxicity SETFA
Protocol: as §1, §2

[6] = test system: Zea mays (ZEAMX, corn/maize); test: as above; settings: 312 h, visual evaluation after 13 days, read-out: Percentage phytotoxicity ZEAMX
Protocol: as §1, §2

[7] = test system: Echinochloa crus-galli (ECHCG); test: Test 2 glasshouse assay (IF50 formulation, X-77), post-emergence herbicidal activity; settings: 360 h, 15 DAA, visual score, read-out: Post-emergence herbicidal activity (percentage phytotoxicity) ECHCG; for pest or weed control at 250 g/ha: application rate 250 g/ha; for pest or weed control at 125 g/ha: application rate 125 g/ha; for pest or weed control at 30 g/ha: application rate 30 g/ha
Protocol: (§3) Seeds of a variety of monocotyledonous and dicotyledonous test plants are sown in standard soil in pots. The plants are cultivated for one day (for pre-emergence) or for about 12 days (for post-emergence) under controlled conditions in a glasshouse (warm climate species at 24/18° C., cool climate species at 20/16° C., both at day/night; 16 hours light; 65% humidity).
(§4) An “instant formulation”, known as the “IF50”, containing 50 g/liter (i.e. 5% w/v) of the “technical” (i.e. unformulated) active ingredient is prepared by dissolving the active ingredient in a mixture of organic solvents and emulsifier, details of which are provided in the Table below. This IF50 is then mixed with a small, variable amount of acetone to aid dissolution, before addition of a 0.2% v/v aqueous solution of the adjuvant X-77 (which is a mixture of alkyl aryl polyoxyethylene glycols and free fatty acids in isopropanol, CAS Registry number 11097-66-8), as the aqueous diluent, to form an aqueous spray solution which contains a predetermined concentration of the active ingredient (which varies depending on the application rate of the active ingredient to the plants) and 0.2% v/v of the adjuvant X-77. This aqueous spray solution is then sprayed onto the plants, after one day's cultivation (for pre-emergence), or after about 12 days' cultivation (range=10-13 days) (for post-emergence).
(§5) The test plants are then grown on, in a glasshouse (greenhouse) under controlled conditions (warm climate species at 24/18° C., cool climate species at 20/16° C., both at day/night; 16 hours light; 65% humidity) and are watered twice daily. 15 days after application of the test herbicide (15DAA) (for post-emergence), and 20 days after application of the test herbicide (20DAA) (for pre-emergence), the test plants are evaluated visually, and an assessed percentage phytotoxicity score is given for each herbicidal application on each plant species (with 100%=total damage to plant; 0%=no damage to plant).
(§6) Warm climate (“warm season”) grassy monocotyledonous weeds: Setaria faberi (SETFA), Panicum miliaceum (PANMI), Sorghum vulgare Pers. (SORVU) (or Sorghum bicolor (L) Moench ssp. Bicolor), Digitaria sanguinalis (DIGSA), Echinochloa crus-galli (ECHCG), and Brachiaria plantaginea (BRAPL).

[8] = test system: Panicum miliaceum (PANMI); test: as above; settings: 360 h, 15 DAA, visual score, read-out: Post-emergence herbicidal activity (percentage phytotoxicity) PANMI; for pest or weed control at 250 g/ha: application rate 250 g/ha; for pest or weed control at 125 g/ha: application rate 125 g/ha; for pest or weed control at 30 g/ha: application rate 30 g/ha
Protocol: as §3, §4, §5, §6

[9] = test system: Sorghum vulgare Pers. (SORVU); test: as above; settings: Sorghum bicolor, 360 h, 15 DAA, visual score, read-out: Post-emergence herbicidal activity (percentage phytotoxicity) SORVU; for pest or weed control at 250 g/ha: application rate 250 g/ha; for pest or weed control at 125 g/ha: application rate 125 g/ha; for pest or weed control at 30 g/ha: application rate 30 g/ha
Protocol: as §3, §4, §5, §6

[10] = test system: Digitaria sanguinalis (DIGSA); test: Test 2 glasshouse assay (IF50 formulation, X-77), pre-emergence herbicidal activity; settings: 480 h, 250 g/ha, 20DAA, read-out: Percentage phytotoxicity DIGSA
Protocol: as §3, §4, §5, §6

[11] = test system: Echinochloa crus-galli (ECHCG); test: as above; settings: 480 h, 250 g/ha, 20DAA, read-out: Percentage phytotoxicity ECHCG
Protocol: as §3, §4, §5, §6

[12] = test system: Panicum miliaceum (PANMI); test: as above; settings: 480 h, 250 g/ha, 20DAA, read-out: Percentage phytotoxicity PANMI
Protocol: as §3, §4, §5, §6

[13] = test system: Setaria faberi (SETFA); test: as above; settings: 480 h, 250 g/ha, 20DAA, read-out: Percentage phytotoxicity SETFA
Protocol: as §3, §4, §5, §6

[14] = test system: Sorghum vulgare Pers. (SORVU); test: as above; settings: Sorghum bicolor, 480 h, 250 g/ha, 20DAA, read-out: Percentage phytotoxicity SORVU
Protocol: as §3, §4, §5, §6

Row | SMILES | pest or weed control at 250 g/ha [1] | pest or weed control at 250 g/ha [2] | pest or weed control at 250 g/ha [3] | pest or weed control at 250 g/ha [4] | pest or weed control at 250 g/ha [5] | pest or weed control at 250 g/ha [6] | pest or weed control at 250 g/ha [7] | pest or weed control at 250 g/ha [8] | pest or weed control at 250 g/ha [9] | pest or weed control at 250 g/ha [10] | pest or weed control at 250 g/ha [11] | pest or weed control at 250 g/ha [12] | pest or weed control at 250 g/ha [13] | pest or weed control at 250 g/ha [14] | pest or weed control at 125 g/ha [7] | pest or weed control at 125 g/ha [8] | pest or weed control at 125 g/ha [9] | pest or weed control at 30 g/ha [7] | pest or weed control at 30 g/ha [8] | pest or weed control at 30 g/ha [9]
1 | C#CCC1CC(=O)C(c2c(F)cc(-c3ccc(F)cc3F)cc2OC)C1=O (stereo not drawn) [Compound A21] | 10% | 80% | 0% | 90% | 90% | 100% |  |  |  |  |  |  |  |  |  |  |  |  |  | 
2 | C#CCC1CC(=O)C(c2cc(-c3ncc(Cl)cn3)ccc2C)C1=O (stereo not drawn) [Compound A19] | 40% | 60% | 40% | 50% | 60% | 0% | 70% | 70% | 70% |  |  |  |  |  |  |  |  |  |  | 
3 | C#CCC1CC(=O)C(c2c(F)cc(-c3ccc(Cl)cc3)cc2Cl)C1=O (stereo not drawn) [Compound A6, 2-[2-chloro-4-(4-chlorophenyl)-6-fluorophenyl]-4-prop-2-ynylcyclopentane-1,3-dione] | 40% | 90% | 90% | 100% | 100% | 90% | 100% | 100% | 100% | 20% | 50% | 0% | 0% | 40% | 100% | 100% | 100% |  |  | 
4 | C#CCC1CC(=O)C(c2cc(-c3ncc(Cl)cc3F)ccc2C)C1=O (stereo not drawn) [Compound A18] | 20% | 60% | 40% | 60% | 70% | 30% | 90% | 60% | 70% |  |  |  |  |  |  |  |  |  |  | 
5 | C#CCC1CC(=O)C(c2c(Cl)cc(-c3ccc(Cl)cn3)cc2OC)C1=O (stereo not drawn) [Compound A10] | 60% | 100% | 100% | 100% | 100% | 100% | 100% | 100% | 100% | 100% | 100% | 100% | 100% | 100% |  |  |  | 100% | 100% | 100%
6 | C#CCC1CC(=O)C(c2c(C)cc(C)cc2C)C1=O (stereo not drawn) [Compound A23] |  | 100% |  | 100% |  |  |  |  |  | 90% | 100% | 100% | 90% | 70% | 100% | 100% | 90% |  |  | 
7 | C#CCC1CC(=O)C(c2c(F)cc(-c3ccc(F)cc3)cc2OC)C1=O (stereo not drawn) [Compound A20, 2-[2-fluoro-4-(4-fluorophenyl)-6-methoxyphenyl]-4-prop-2-ynylcyclopentane-1,3-dione] | 70% | 90% | 70% | 100% | 100% | 100% |  |  |  |  |  |  |  |  |  |  |  |  |  | 
8 | C#CCC1CC(=O)C(c2cc(-c3ccc(Cl)cc3Cl)ccc2C)C1=O (stereo not drawn) [Compound A15] |  |  |  |  |  |  | 70% | 70% | 40% | 50% | 10% | 20% | 20% | 30% |  |  |  |  |  | 
9 | C#CCC1CC(=O)C(c2c(F)cc(-c3ccc(Cl)cn3)cc2Cl)C1=O (stereo not drawn) [Compound A8] | 0% | 90% | 90% | 100% | 100% | 90% | 100% | 100% | 100% | 80% | 60% | 90% | 70% | 80% |  |  |  | 70% | 100% | 100%
